# Test results from ChEMBL document CHEMBL4483862, “Open-source discovery of chemical leads for next-generation chemoprotective antimalarials” (2018).
# Tested on: Plasmodium berghei
# Experiment: Luciferase/luciferin-expressing antifolate-resistant parasites were used to infect a culture of HepG2 cells that were pre-incubated with compounds. Infected hepatocytes emit light due to the luciferase reaction. Assay results are presented as the percent inhibition of light emission compared to control. […]
# Assay type: functional
# Conditions: sporozoite; for IC90: read-out: LUCIFERASE INFECTION ASSAY - IC90
SMILES,IC90 [µM],also measured
COc1cc(OC)cc(-c2cn3c(-c4ccc5c(c4)OCO5)cnc3cn2)c1,> 8.79,"IC50 (HEPG2TOX_HILL_SLOPE 7.71, HEPG2TOX_R_SQUARED 0.876, PBLUC_HILL_SLOPE 4.45, PBLUC_R_SQUARED 0.518, read-out: LUCIFERASE INFECTION ASSAY - IC50): 5.54 µM"
Nc1nccnc1C(=O)NNC(=O)c1cccc(C(F)(F)F)c1,7.02,"IC50 (HEPG2TOX_HILL_SLOPE 7.79, HEPG2TOX_R_SQUARED 0.494, PBLUC_HILL_SLOPE 4.8, PBLUC_R_SQUARED 0.215, read-out: LUCIFERASE INFECTION ASSAY - IC50): 4.44 µM"
O=C(Nc1nnc(C(F)(F)F)[nH]1)c1cc(-c2ccc(Br)cc2)nc2ccccc12,> 10,"IC50 (HEPG2TOX_HILL_SLOPE 7.84, HEPG2TOX_R_SQUARED 0.569, PBLUC_HILL_SLOPE 1.54, PBLUC_R_SQUARED 0.197, read-out: LUCIFERASE INFECTION ASSAY - IC50): 9.57 µM"
N#C/C(=C1/SC=C(c2ccc(-c3ccccc3)cc2)N1c1ccccc1)c1nnc2n1CCCCC2,3.6,"IC50 (HEPG2TOX_HILL_SLOPE 7.81, HEPG2TOX_R_SQUARED 0.359, PBLUC_HILL_SLOPE 26.3, PBLUC_R_SQUARED 0.88, read-out: LUCIFERASE INFECTION ASSAY - IC50): 3.31 µM"
COc1cc2c(cc1OC)C(c1ccccc1)N(CC(=O)Nc1c(C)cc(C)cc1Cl)CC2 (centres undefined),9.2,"IC50 (HEPG2TOX_HILL_SLOPE 7.81, HEPG2TOX_R_SQUARED 0.408, PBLUC_HILL_SLOPE 9.86, PBLUC_R_SQUARED 0.196, read-out: LUCIFERASE INFECTION ASSAY - IC50): 7.36 µM"
O=[N+]([O-])c1cccc(-c2nnc3c4ccccc4nc(C(F)(F)F)n23)c1,> 9.19,"IC50 (HEPG2TOX_HILL_SLOPE 7.76, HEPG2TOX_R_SQUARED 0.363, PBLUC_HILL_SLOPE 1.91, PBLUC_R_SQUARED 0.781, read-out: LUCIFERASE INFECTION ASSAY - IC50): 4.42 µM"
CCCCNC(=O)c1c(NC(=O)c2ccc(OC)cc2)nc2ccc(C)cn12,8.55,"IC50 (HEPG2TOX_HILL_SLOPE 7.85, HEPG2TOX_R_SQUARED 0.829, PBLUC_HILL_SLOPE 17, PBLUC_R_SQUARED 0.0919, read-out: LUCIFERASE INFECTION ASSAY - IC50): 7.51 µM"
Cc1cc(C(=O)CSc2nnc(C3CC3)o2)c(C)n1-c1ccc2c(c1)CCC2,> 10,"IC50 (HEPG2TOX_HILL_SLOPE 7.74, HEPG2TOX_R_SQUARED 0.677, read-out: LUCIFERASE INFECTION ASSAY - IC50): > 10 µM"
O=c1c2ccccc2ncn1CCOCCOc1ccccc1-c1ccccc1,> 8.54,"IC50 (HEPG2TOX_HILL_SLOPE 7.75, HEPG2TOX_R_SQUARED 0.123, read-out: LUCIFERASE INFECTION ASSAY - IC50): > 8.54 µM"
COCc1cccc(C(=O)Nc2ccc3c(c2)OC(F)(F)O3)c1,> 10,"IC50 (HEPG2TOX_HILL_SLOPE 7.81, HEPG2TOX_R_SQUARED 0.0219, PBLUC_HILL_SLOPE 15.2, PBLUC_R_SQUARED 0.505, read-out: LUCIFERASE INFECTION ASSAY - IC50): 9.35 µM"
CCCCc1ccc(CC(=O)NCc2ccc(Cn3cccn3)cc2)cc1,8.98,"IC50 (HEPG2TOX_HILL_SLOPE 7.71, 2.15, HEPG2TOX_R_SQUARED 0.735, 0.901, PBLUC_HILL_SLOPE 15.3, 3.44, PBLUC_R_SQUARED 0.0878, 0.809, read-out: LUCIFERASE INFECTION ASSAY - IC50): 7.36 µM"
CC(C)c1cccc(-c2ccc3nnc(-c4ccc5c(c4)NC(=O)CO5)n3c2)c1,> 10,"IC50 (HEPG2TOX_HILL_SLOPE 7.77, HEPG2TOX_R_SQUARED 0.643, read-out: LUCIFERASE INFECTION ASSAY - IC50): > 10 µM"
CCc1ccc(C(=O)Nc2nc3ccc(C)cn3c2C(=O)NC(C)CC)cc1 (centres undefined),3.2,"IC50 (HEPG2TOX_HILL_SLOPE 7.71, HEPG2TOX_R_SQUARED 0.568, PBLUC_HILL_SLOPE 11.7, PBLUC_R_SQUARED 0.544, read-out: LUCIFERASE INFECTION ASSAY - IC50): 2.65 µM"
CC(=O)Nc1cccc(Oc2ccc(C(=O)Nc3ccc4ccccc4c3)cc2[N+](=O)[O-])c1,1.68,"IC50 (HEPG2TOX_HILL_SLOPE 7.7, HEPG2TOX_R_SQUARED 0.774, PBLUC_HILL_SLOPE 1.37, PBLUC_R_SQUARED 0.884, read-out: LUCIFERASE INFECTION ASSAY - IC50): 0.337 µM"
O=C1C=C(c2ccc(Cl)cc2)C(=O)N1Nc1ccc(F)cc1,> 10.4,"IC50 (HEPG2TOX_HILL_SLOPE 7.85, HEPG2TOX_R_SQUARED 0.837, PBLUC_HILL_SLOPE 13.2, PBLUC_R_SQUARED 0.145, read-out: LUCIFERASE INFECTION ASSAY - IC50): 10.2 µM"
Cc1sc2nc3c4ccccc4c(NCc4ccccc4CN4CCOCC4)nn3c(=O)c2c1C,> 10,"IC50 (HEPG2TOX_HILL_SLOPE 7.8, HEPG2TOX_R_SQUARED 0.205, PBLUC_HILL_SLOPE 3, PBLUC_R_SQUARED 0.458, read-out: LUCIFERASE INFECTION ASSAY - IC50): 5.95 µM"

SMILES,IC90 [µM],also measured
CC(Sc1nc2ccccc2c(=O)n1C)C(=O)Nc1cc([N+](=O)[O-])ccc1Cl (centres undefined),> 10,"IC50 (HEPG2TOX_HILL_SLOPE 7.72, HEPG2TOX_R_SQUARED 0.92, read-out: LUCIFERASE INFECTION ASSAY - IC50): > 10 µM"
O=C1C=C(NCCSCc2ccccc2Cl)CC(c2ccc3c(c2)OCO3)C1 (centres undefined),> 7.93,"IC50 (HEPG2TOX_HILL_SLOPE 7.83, HEPG2TOX_R_SQUARED 0.476, PBLUC_HILL_SLOPE 2.36, PBLUC_R_SQUARED 0.149, read-out: LUCIFERASE INFECTION ASSAY - IC50): 6.56 µM"
C(=N\N1CCN(c2ccccn2)CC1)/C1=C(Sc2nc3ccccc3s2)CCCC1,> 10,"IC50 (HEPG2TOX_HILL_SLOPE 7.72, HEPG2TOX_R_SQUARED 0.819, PBLUC_HILL_SLOPE 7.09, PBLUC_R_SQUARED 0.503, read-out: LUCIFERASE INFECTION ASSAY - IC50): 7.43 µM"
O=c1cc(C(F)(F)F)[nH]n1-c1ccc(OC(F)(F)F)cc1,> 10.6,"IC50 (HEPG2TOX_HILL_SLOPE 7.72, HEPG2TOX_R_SQUARED 0.792, PBLUC_HILL_SLOPE 12.3, PBLUC_R_SQUARED 0.186, read-out: LUCIFERASE INFECTION ASSAY - IC50): 9.78 µM"
CC(C)c1ccc(-n2c(SCc3c(F)cccc3Cl)nnc2-c2ccc(C(C)(C)C)cc2)cc1,5.28,"IC50 (HEPG2TOX_HILL_SLOPE 7.75, HEPG2TOX_R_SQUARED 0.388, PBLUC_HILL_SLOPE 5.31, PBLUC_R_SQUARED 0.644, read-out: LUCIFERASE INFECTION ASSAY - IC50): 3.49 µM"
CCOC(=O)c1sc(NC(=O)c2cc(-c3ccc(F)cc3)nc3ccccc23)cc1C,9.91,"IC50 (HEPG2TOX_HILL_SLOPE 7.73, HEPG2TOX_R_SQUARED 0.935, PBLUC_HILL_SLOPE 14.3, PBLUC_R_SQUARED 0.729, read-out: LUCIFERASE INFECTION ASSAY - IC50): 8.51 µM"
CCc1c(C(=O)Nc2nc(C)cs2)cnn1-c1cccc(Cl)c1,1.14,"IC50 (HEPG2TOX_HILL_SLOPE 7.81, HEPG2TOX_R_SQUARED 0.827, PBLUC_HILL_SLOPE 1.59, PBLUC_R_SQUARED 0.7, read-out: LUCIFERASE INFECTION ASSAY - IC50): 0.286 µM"
CSc1ccccc1NC(=O)CN1CCN(C(c2ccccc2)c2ccccc2)CC1,6.36,"IC50 (HEPG2TOX_HILL_SLOPE 7.79, HEPG2TOX_R_SQUARED 0.752, PBLUC_HILL_SLOPE 3.88, PBLUC_R_SQUARED 0.663, read-out: LUCIFERASE INFECTION ASSAY - IC50): 3.61 µM"
Nc1ncc(-c2cccc(O)c2)cc1-c1cccc(C(F)(F)F)c1,3.76,"IC50 (HEPG2TOX_HILL_SLOPE 7.78, HEPG2TOX_R_SQUARED 0.72, PBLUC_HILL_SLOPE 13.3, PBLUC_R_SQUARED 0.696, read-out: LUCIFERASE INFECTION ASSAY - IC50): 3.18 µM"
CCn1c2ccccc2c2cc(NC(=O)COC(=O)C3CSC4(c5ccc(F)cc5)CCC(=O)N34)ccc21 (centres undefined),> 10,"IC50 (HEPG2TOX_HILL_SLOPE 7.81, HEPG2TOX_R_SQUARED 0.779, read-out: LUCIFERASE INFECTION ASSAY - IC50): > 10 µM"
Cc1ccc(C)c(-c2nn(CC(=O)N3c4ccccc4CC3C)c(=O)c3ccccc23)c1 (centres undefined),> 10,"IC50 (HEPG2TOX_HILL_SLOPE 7.77, HEPG2TOX_R_SQUARED 0.247, read-out: LUCIFERASE INFECTION ASSAY - IC50): > 10 µM"
C=CCNC(=O)CSc1nccc(-c2sc3sc(Br)c(C)c3c2C)n1,> 7.26,"IC50 (HEPG2TOX_HILL_SLOPE 7.83, HEPG2TOX_R_SQUARED 0.735, PBLUC_HILL_SLOPE 0.44, PBLUC_R_SQUARED 0.419, read-out: LUCIFERASE INFECTION ASSAY - IC50): 2.88 µM"
O=C(COc1ccccc1)Nc1nc2ccccn2c1C(=O)NC1CCCCC1,6.99,"IC50 (HEPG2TOX_HILL_SLOPE 7.86, HEPG2TOX_R_SQUARED 0.377, PBLUC_HILL_SLOPE 5.91, PBLUC_R_SQUARED 0.352, read-out: LUCIFERASE INFECTION ASSAY - IC50): 4.82 µM"
CCCN(CCC)Cc1c(O)ccc2c1O/C(=C\c1ccc(OCC)cc1)C2=O,> 8.34,"IC50 (HEPG2TOX_HILL_SLOPE 7.71, HEPG2TOX_R_SQUARED 0.351, PBLUC_HILL_SLOPE 26.6, PBLUC_R_SQUARED 0.241, read-out: LUCIFERASE INFECTION ASSAY - IC50): 7.9 µM"
CCNC(=O)C1(C)CCCN1Cc1ccc(-c2ccccc2)cc1 (centres undefined),> 10.2,"IC50 (HEPG2TOX_HILL_SLOPE 7.75, HEPG2TOX_R_SQUARED 0.0398, PBLUC_HILL_SLOPE 14.9, PBLUC_R_SQUARED 0.606, read-out: LUCIFERASE INFECTION ASSAY - IC50): 9.52 µM"
CCn1c(-c2cc(C(=O)c3ccccc3O)c[nH]2)nc2ccccc21,> 10,"IC50 (HEPG2TOX_HILL_SLOPE 7.78, HEPG2TOX_R_SQUARED 0.356, PBLUC_HILL_SLOPE 1.9, PBLUC_R_SQUARED 0.373, read-out: LUCIFERASE INFECTION ASSAY - IC50): 6.07 µM"
